Measured values as given in US20080063699A1, “Method of Administering Cationic Liposomes Comprising an Active Drug” (priority 2003, published 2008).
Values after ≈ are worked out from the molar mass of the structure shown. Values joined by “and” are separate entries in the source; they are usually repeats but may differ in a detail not shown here. Identical values can stand only once. Like-named read-outs stand apart in the source and are kept apart here.

Key:
[1] = system: Solid orthotopic L3.6pl pancreas tumor; experiment: Anti-tumor efficacy in combination with gemcitabine (100 mg/kg); settings: for final tumor volume compared to the control group: day 27, Gemzar 100 mg/kg i.p., MBT-0206/paclitaxel 5 mg/kg i.v.
Procedure: Tumor size of L3.6pI pancreatic tumors 19 days after start of treatment. Treatment with 10% trehalose, paclitaxel, MBT-0206, Gemzar (gemcitabine) and the combination of both MBT-0206 and Gemzar started 8 days after tumor cell inoculation. Gemzar was applied i.p. at a dose of 100 mg/kg bw twice a week (Mon, Thu). paclitaxel and MBT-0206 were applied i.v. on a Mon, Wed, Fri schedule at a paclitaxel dose of 5 mg/kg bw. The combination group received both MBT-0206 and Gemzar with the respective schedule. Tumors were measured by palpation with a calliper on day 23 and 27. Mean±SEM; n=9 per group.
Metastases at day 19 after start of treatment. Treatment with 10% trehalose, paclitaxel, MBT-0206, Gemzar (gemcitabine) and the combination of both MBT-0206 and Gemzar started at day 8 after tumor cell inoculation. Geinzar was applied i.p. at a dose of 100 mg/kg bw twice a week (Mon, Thu). paclitaxel and MBT-0206 were applied i.v. on a Mon, Wed, Fri schedule at a paclitaxel dose of 5 mg/kg bw. The combination group received both MBT-0206 and Gemzar with the respective schedule, n=9 per group.
Tumor volume palpated at day 23, 26 after inoculation and after harvesting
Necrospy after harvest at day 27

[2] = system: Solid orthotopic L3.6pl pancreas tumor; experiment: Anti-tumor efficacy in combination with gemcitabine (50 mg/kg); type: in vivo; settings: for tumor size: day 28 after tumor inoculation, after harvest
Excerpt: • Species: male Balb/c nu/nu mice • Tumor model: Solid orthotopic L3.6pI pancreas tumor (highly mestastatic; Bruns C J, Harbison M T, Kuniyasu H, Eue I, Fidler I J. In vivo selection and characterization of metastatic variants from human pancreatic adenocarcinoma by using orthotopic implantation in nude mice. Neoplasia 1999; 1(1):50-62.) • Supplier: Charles River France
Tumor volume palpated at day 10, 12, 14, 17, 19, 21, 24 after inoculation and at day 26, 28 after harvesting
Necrospy after harvest at day 26 and 28

[3] = system: highly drug-resistant uterus sarcoma line Mes-SA/Dx-5MBT; experiment: Growth inhibitory assay (MTT, 72 h); type: cell-based, human; settings: for IC50: Homo sapiens, MES-SA
Procedure: (§1) FIG. 3-5: The growth inhibitory assay was performed in 24-well plates with each drug concentration tested in duplicate (n=2 wells). 4×10^4 cells per well were seeded into a 24-well plate and incubated over night. The following day, 10-11 concentrations of the respective drug formulation were added for 72 h to cover the range depicted in the respective graphs. Finally, the cell viability was determined by a standard MTT-assay measuring the activity of mitochondrial-dehydrogenases.
as §1, with “The” for “FIG. 3-5: The”, “mitochondrial dehydrogenases.” for “mitochondrial-dehydrogenases.”
These cell lines were selected by stepwise increasing the concentration of paclitaxel in the culture medium.
(§2) The highly paclitaxel resistant derivative cell line Mes-SA/Dx-5MBT was selected with increasing paclitaxel concentrations from the commercially available line Mes-SA/Dx-5 (ATCC, {Harker, 1986 #29}).

[4] = system: drug-resistant human dermal melanoma line Sk-Mel28; experiment: Growth inhibitory assay (MTT, 72 h); type: cell-based; settings: SK-MEL-28, FIG. 10
Procedure: as §1, with “10: Inhibitory Potential of paclitaxel against the drug-resistant human dermal melanoma line Sk-Mel28.” for “3-5:”, “11” for “10-11”, “mitochondrial dehydrogenases.” for “mitochondrial-dehydrogenases.”
(§3) 2. […] In vivo, these cells were injected into SCID mice bearing human skin transplants between human skin transplant and mouse acceptor skin. Treatments were started on day 17 after tumor cell injection and extended to day 28 with doses (12.5 mg/kg b.w.) every second day. The therapeutic potential of MBT-0206 and paclitaxel were compared on day 7 after start of treatments (see table below). […] Upon treatment with MBT-0206, tumors only marginally grew to about 1/10 the size of paclitaxel (paclitaxel)-treated tumors.

[5] = system: drug-sensitive human uterus sarcoma line Mes-SA; experiment: Growth inhibitory assay (MTT, 72 h); type: cell-based; settings: FIG. 5
Procedure: as §1
as §1, with “The” for “FIG. 3-5: The”, “mitochondrial dehydrogenases.” for “mitochondrial-dehydrogenases.”
as §2

Sk-Mel28 tumor = experiment: Paclitaxel-resistant melanoma model with human skin transplants in vivo; design: species or system SCID mice; settings: 12.5 mg/kg b.w. every second day
Procedure: as §3
Mes-SA/Dx-5MBT tumor model: tumor volumes on day 23 after start of treatment (9 treatments, i.e. 3 per week, from day 12 to day 31 after tumor cell injection) Sk-Mel tumor model: tumor volumes on day 7 after start of treatment (6 treatments very other day, i.e. from day 17 to day 28 after tumor cell injection).

[6] = system: highly drug-resistant murine colon carcinoma line Colon-26MBT; experiment: Growth inhibitory assay (MTT, 72 h); type: cell-based; settings: Mus musculus
Procedure: as §1, with “6-7:” for “3-5:”, “mitochondrial dehydrogenases.” for “mitochondrial-dehydrogenases.”

[7] = system: parental drug-sensitive murine colon carcinoma line Colon-26; experiment: Growth inhibitory assay (MTT, 72 h); type: cell-based; settings: FIG. 7
Procedure: as §1, with “6-7:” for “3-5:”, “mitochondrial dehydrogenases.” for “mitochondrial-dehydrogenases.”

[8] = system: moderatly drug-resistant uterus sarcoma line Mes-SA/Dx-5; experiment: Growth inhibitory assay (MTT, 72 h); type: cell-based, human
Procedure: as §1, §2

Row | SMILES | final tumor volume compared to the control group [1] [%] | tumor size [2] [mm^3] | mortality at day 24 ([2]; n=9 per group, MBT-0206 5 mg/kg i.v., Gemzar 50 mg/kg i.p.) [animals dead] | weight loss (body weight) ([1]; during the last 11 days) [%] | IC50 (50% growth inhibition) ([3]; 72 h, MTT) [µg/mL] | fold increased paclitaxel tolerance compared to the parental line Mes-SA (by IC50 values) ([3]; FIG. 9) [fold] | IC50 ([3]; 72 h, MTT, read-out: IC50) [µg/mL] | IC50 ([3]; 72 h, MTT, read-out: IC50 (50% growth inhibition)) | IC50 [4] [µg/mL] | IC50 [5] [µg/mL] | effect on tumor development (Sk-Mel28 tumor) | IC50 ([6]; FIG. 6, read-out: IC50) [µg/mL] | IC50 ([6]; read-out: IC50 (50% growth inhibition)) | sensitivity of the line for MBT-0206 and paclitaxel [7] | fold lower IC50 value than in Mes-SA/Dx-5MBT [8]
1 | Nc1ccn([C@@H]2O[C@H](CO)[C@@H](O)C2(F)F)c(=O)n1 [Gemzar, gemcitabine] | 47 | 398 | 1 |  |  |  |  |  |  |  |  |  |  |  | 
2 | CC(=O)O[C@H]1C(=O)[C@@]2(C)[C@H]([C@H](OC(=O)c3ccccc3)[C@]3(O)C[C@H](OC(=O)[C@H](O)[C@@H](NC(=O)c4ccccc4)c4ccccc4)C(C)=C1C3(C)C)[C@]1(OC(C)=O)CO[C@@H]1C[C@@H]2O [paclitaxel] | 68 | 536 |  | 2 | 0.867 (≈ 1.02 µM) | ~150 | 0.87 (≈ 1.02 µM) | ~1 µM and ~0.867 µg/mL | 5.8 (≈ 6.79 µM) | 0.0055 (≈ 0.00644 µM) | completely ineffective | ~5 (≈ 5.86 µM) | ~5 µM and ~5 µg/mL | equally sensitive | approximately 7 fold
